{
  "source": "patent US20150051269A1",
  "about": "“Drug Delivery Conjugate Capable of Controlled Release, and Use Thereof” (POSTECH ACADEMY-INDUSTRY FOUNDATION, priority 2012, published 2015)",
  "key": {"[1]": {"test": "Size of drug delivery conjugates in aqueous solution (Zetasizer Nano S)", "type": "physicochemical", "conditions": "diameter in aqueous solution", "method": "(§1) To measure the sizes and surface charges of the drug delivery conjugates prepared by the method of Example 1, the surface charges and sizes of the drug delivery conjugates in an aqueous solution were measured using a surface charge measurement system (Zetasizer Nano Z) and a size measurement system (Zetasizer Nano S)."}, "[2]": {"test": "Surface charge in aqueous solution (Zetasizer Nano Z)", "type": "physicochemical", "method": "as §1"}},
  "data": [
    {"smiles": "CC(=O)O[C@H]1C(=O)[C@@]2(C)[C@H]([C@H](OC(=O)c3ccccc3)[C@]3(O)C[C@H](OC(=O)[C@H](O)[C@@H](NC(=O)c4ccccc4)c4ccccc4)C(C)=C1C3(C)C)[C@]1(OC(C)=O)CO[C@@H]1C[C@@H]2O", "note": "[PTX, paclitaxel]", "values": [
      {"measurement": "Size (d, nm)", "setting": "[1]", "result": "806.4 ± 235.9", "unit": "nm"},
      {"measurement": "Zeta potential (mV)", "setting": "[2]", "result": "−39.2 ± 1.50", "unit": "mV"}
    ]}
  ]
}
